Values of other authors, collected in article PMC6344942 (SLAS discovery : advancing life sciences R & D, 2017).
Read-outs that look alike come from different tables or passages of the source.

Molecular target: Ubc9 (Homo sapiens, UniProt P63279)
Sequence (P63279 whole entry): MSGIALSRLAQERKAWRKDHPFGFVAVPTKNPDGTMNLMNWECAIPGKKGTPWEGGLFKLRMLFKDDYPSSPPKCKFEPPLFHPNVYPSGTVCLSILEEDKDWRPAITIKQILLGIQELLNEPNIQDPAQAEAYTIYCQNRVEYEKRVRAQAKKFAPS

Row | IC50 (prevents transfer of SUMO from Ubc9~SUMO thioester to substrate) [µM] | SMILES | IC50 (Ubc9 inhibitor) [µM]
1 | 6 | O=c1cc(-c2ccc(O)c(O)c2O)oc2ccccc12 [Compound 2-D08, 2-D08] | 
2 |  | COC(=CC(=O)O)C1c2cc3ccc(-c4ccc5cc6c(c(O)c5c4O)C(=O)CC(C)(O)C6C(=CC(=O)O)OC)c(O)c3c(O)c2C(=O)CC1(C)O (centres unmarked) [spectomycin B1] | 4.4
